Results on 133 compounds are retold here after the OPERA property sets (Mansouri et al. 2018).

Structures are written as SMILES. Peptide text beside a SMILES is read from it.

Turning to `CCOP(=S)(OCC)Oc1ccc([N+](=O)[O-])cc1`, the lipophilicity (logP) turned out to be 3.83.

The compound `NC(=O)C(=Cc1ccccc1)C(N)=O` gave a logP of -0.13.

As to `Brc1cccs1`, the logP was determined as 2.75.

`CON(C)C(=O)Nc1ccc(C(C)=O)cc1`: the logP is 1.22.

As to `O=[N+]([O-])c1cc[n+]([O-])c2c(F)cccc12`, the logP amounted to 1.

With `CC(C)OCCO`, the lipophilicity (logP) was 0.05.

On to `Nc1ccccc1Br`, for which the logP came to 2.11.

The compound `O=NN1CCC(Br)C(Br)C1` (stereo not drawn) showed a logP of 1.23.

In turn, `COc1ccc(NC(=O)NN=Cc2ccc[nH]2)cc1` yielded a logP of 2.67.

Compound `CC(=O)OCC(=O)[C@H]1CC[C@H]2[C@@H]3CCC4=CC(=O)CC[C@]4(C)[C@H]3CC[C@]12C` returned a logP of 3.08.

On to `CCOc1cc(C(=O)NN)ccn1`, for which the logP is 0.48.

`COc1cc(OC)cc(C(=O)O)c1` yielded a logP of 2.19.

`O=[N+]([O-])c1ccc(OC2OC(CO)C(OC3OC(CO)C(O)C(O)C3O)C(O)C2O)cc1` (stereo not drawn) gave a logP of -1.39.

For `Clc1nnnn1-c1ccccc1`, the lipophilicity (logP) was 1.48.

`NC(=O)C(Cc1ccccc1)NC(=O)C(N)Cc1ccccc1` (stereo not drawn) showed a logP of 1.13.

The compound `Cc1ccc([N+](=O)[O-])cc1` gave a logP of 2.37.

Compound `CCc1ccco1` yielded a logP of 2.4.

Regarding `CCOC(=O)C(=Cc1ccc(O)c(OC)c1)C(=O)OCC`, the logP stood at 2.89.

Compound `O=c1n[n+]([O-])ccn1C1OC(CO)C(O)C1O` (stereo not drawn) showed a logP of -2.43.

The compound `CCCNCc1cccnc1` showed a logP of 0.9.

As to `Cc1cccs1`, the log partition coefficient (logP) turned out to be 2.33.

In the case of `CN(C)N=O`, the logP is -0.57.

Compound `NNC(=O)c1ccnc(N)c1` had a lipophilicity (logP) of -0.98.

The compound `NCCCCCc1ccncc1` gave a lipophilicity (logP) of 1.4.

In turn, `OC[C@@H](O)[C@@H](O)CO` registered a logP of -2.29.

`O=C(O)c1c(Cl)cccc1Cl`: the logP was determined as 2.23.

`CCO[Si](OCC)(c1ccccc1)c1ccccc1`: the logP stood at 4.92.

As to `O=S(=O)(Nc1ccc(Cl)cc1)C(F)F`, the logP amounted to 2.84.

`CC(=O)NCc1cc(C(=O)NN)ccn1` came in with a logP of -1.58.

Compound `CCN1CCN(C(=O)NC(C(=O)NC2C(=O)N3C(C(=O)O)=C(CSc4nnnn4C)CSC23)c2ccc(O)cc2)C(=O)C1=O` (stereo not drawn) yielded a logP of -0.74.

The compound `O=C1C=C(N2CCCC2)C(=O)c2ccccc21` yielded a logP of 2.89.

`CN(C)C(N(C)C)=S(I)c1ccccc1[N+](=O)[O-]` (stereo not drawn) had a log partition coefficient (logP) of -0.92.

The compound `CCC(=O)c1ccncc1` had a logP of 0.77.

For the compound `Cc1ncc([N+](=O)[O-])n1CC(C)O` (stereo not drawn), the logP came out at 0.22.

As to `CC1=C(N2CC2)C(=O)C(Cl)=C(N2CC2)C1=O`, the lipophilicity (logP) was determined as 1.2.

`CCOC(=O)CCc1ccccc1` returned a logP of 2.73.

As to `C=CC(=O)O`, the logP worked out at 0.35.

`COc1ccc(NC=O)cc1` had a logP of 1.03.

On to `CC(=O)NC(=O)NC(C)=O`, for which the log partition coefficient (logP) was -0.68.

Consider `Cc1ccc2cc3c(ccc4ccccc43)c3c2c1CC3`, for which the logP was determined as 6.42.

Regarding `Cc1ccc(COC(N)=O)cc1`, the logP was 1.76.

For `CCCCCCCCOc1ccc(NC(=O)OCCN2CCCCC2)cc1`, the logP stood at 6.44.

As to `CCC(OC(C)=O)C(CC(C)N(C)C)(c1ccccc1)c1ccccc1` (stereo not drawn), the logP came to 4.27.

The compound `C=C(C)C(=O)OCC(C)C` had a logP of 2.66.

The compound `CC(=O)S[C@@H]1CC2=CC(=O)CC[C@]2(C)[C@H]2CC[C@@]3(C)[C@@H](CC[C@@]34CCC(=O)O4)[C@H]12` displayed a logP of 2.78.

`CNC(=O)Oc1cc(C(C)C)cc(C(C)C)c1`: the logP was determined as 3.79.

Regarding `O=Cc1c[nH]c2ccccc12`, the log partition coefficient (logP) amounted to 1.68.

Consider `CC(C)Oc1ccc(CC#N)cc1`, for which the logP was 2.53.

`Cc1cc(Cl)ccc1O` gave a logP of 2.78.

The compound `CC(=O)Nc1cccs1` gave a logP of 1.1.

On to `COc1cccc(OC)c1C(=O)O`, for which the logP stood at 0.66.

With `CCCCCCCCC1(c2ccncc2)CCC(=O)NC1=O` (stereo not drawn), the lipophilicity (logP) worked out at 4.04.

For `CCCN(CC)CCC`, the logP is 2.68.

As to `CCCC(C)(COC(N)=O)COC(N)=O`, the logP was 0.7.

In turn, `CCC(C)=O` showed a lipophilicity (logP) of 0.29.

As for `CCN(N=O)C(=O)Nc1ccccc1`, the log partition coefficient (logP) stood at 2.25.

Compound `CN(C)C(=O)c1ccco1` registered a lipophilicity (logP) of 0.41.

With `CC1(O)CCC2C3CCC4=CC(=O)CCC4(C)C3(F)C(O)CC21C` (stereo not drawn), the logP was 2.38.

With `NC(Cc1c[nH]c2ccc(F)cc12)C(=O)O` (stereo not drawn), the log partition coefficient (logP) was -0.71.

For `CON(C)C(=O)Nc1ccc2c(c1)Cc1ccccc1-2`, the logP is 3.67.

For `Oc1nc2ccccc2s1`, the log partition coefficient (logP) turned out to be 1.76.

For the compound `NC(=O)Cc1ccccn1`, the logP was -0.65.

`Nc1nc(N)nc(-c2ccccc2Br)n1` yielded a logP of 1.26.

In turn, `O=C1C=C(NCCO)C(=O)c2ccccc21` registered a logP of 1.23.

Compound `Oc1cc(Cl)c(Cl)c(Cl)c1Cl` had a logP of 4.21.

`Nc1ncnc2c1ncn2[C@@H]1O[C@H](CO)[C@@H](O)[C@H]1O` registered a log partition coefficient (logP) of -1.05.

The compound `O=C(O)C1CC1` had a logP of 0.63.

In turn, `Nc1nc(N)nc(-c2ccc([N+](=O)[O-])cc2)n1` yielded a logP of 1.6.

Consider `CCCCCCNC(=O)c1[nH]nc(C)c1[N+](=O)[O-]`, for which the log partition coefficient (logP) came to 2.46.

As for `N#Cc1ccc2cc[nH]c2c1`, the logP was 2.38.

`CN=Cc1ccccc1` gave a log partition coefficient (logP) of 1.64.

In turn, `CC(C)c1ccc(O)c(=O)cc1` displayed a log partition coefficient (logP) of 1.89.

Turning to `CCOc1ccc(OC(=O)NC)cc1`, the logP came out at 1.63.

`CC(=O)C(=Cc1ccc(Br)cc1)C(C)=O` had a log partition coefficient (logP) of 2.75.

In turn, `O=C(O)COc1ccccc1Cl` returned a logP of 1.86.

`O=C(O)CCCC(=O)O` yielded a log partition coefficient (logP) of -0.29.

`CS(=O)(=O)c1ccc2ncccc2c1` returned a logP of 0.7.

With `COc1cccc(C(=O)O)c1O`, the lipophilicity (logP) stood at 1.94.

In turn, `CCNC(=S)Nc1ccccc1` had a logP of 1.42.

Consider `CC(=O)OCC1=C(C(=O)O)N2C(=O)[C@@H](NC(=O)CC#N)[C@H]2SC1`, for which the logP is -0.45.

With `COc1cccc(C(=O)O)c1`, the logP turned out to be 2.02.

In the case of `Nc1nc(N)c2ccccc2n1`, the log partition coefficient (logP) was 1.

As to `CCN(CC)CCc1cccnc1`, the lipophilicity (logP) was determined as 1.23.

Compound `CCCCCCCOc1ccc(NC(=O)OCCN2CCCCC2)cc1` showed a logP of 5.87.

Compound `CCNc1nc(NC(C)C)nc(SC(F)F)n1` came in with a logP of 3.7.

As to `NS(=O)(=O)CCCOc1ccc([N+](=O)[O-])cc1`, the log partition coefficient (logP) is 0.97.

The compound `C=C(C)C(=O)OCC(C)O` (stereo not drawn) registered a log partition coefficient (logP) of 0.97.

`COc1c(O)cc2c(c1OC)-c1ccc(SC)c(=O)cc1C(NC(=O)C(F)(F)F)CC2` (stereo not drawn) showed a logP of 2.61.

Take `FC(F)(F)c1nc2ccccc2[nH]1`: the logP was 2.67.

In turn, `O=C1OC(c2ccccc2)c2ccccc21` (stereo not drawn) gave a lipophilicity (logP) of 2.64.

In the case of `CNC(=O)NC`, the log partition coefficient (logP) is -0.49.

`NS(=O)(=O)c1cc2c(cc1Br)NCNS2(=O)=O` displayed a logP of 0.08.

Turning to `CNC(=O)Oc1ccc(SC)c(C)c1`, the log partition coefficient (logP) worked out at 2.47.

The compound `CC(C)C(=O)NC(CO)C(O)c1ccc([N+](=O)[O-])cc1` (stereo not drawn) displayed a log partition coefficient (logP) of 0.79.

`CN=C(O)Oc1cccc(C)c1` yielded a log partition coefficient (logP) of 1.7.

Consider `O=C1CN=C(c2ccccc2Cl)c2cc([N+](=O)[O-])ccc2N1`, for which the log partition coefficient (logP) came out at 2.41.

Consider `COc1ccc(-c2cc3cnccc3[nH]2)c(OC)c1`, for which the log partition coefficient (logP) was determined as 3.5.

The compound `CCc1ccc(OC(C)=O)cc1` came in with a lipophilicity (logP) of 2.56.

As to `Cc1ccc2ccccc2c1`, the log partition coefficient (logP) is 3.86.

As for `CCCCCCCC(=O)O`, the logP is 3.05.

In the case of `[O-][n+]1cccc(O)c1`, the lipophilicity (logP) was -0.61.

With `NC(=O)C(F)(F)F`, the logP is 0.12.

The compound `O=C(O)CCc1ccc(O)cc1` displayed a lipophilicity (logP) of 1.16.

For `CCCOC(=O)c1ccc(S(N)(=O)=O)cc1`, the logP was determined as 1.75.

Compound `CCCCCCCCCCCCCC` came in with a logP of 7.2.

Take `O=C(Oc1ccccc1)n1c(=O)[nH]cc(F)c1=O`: the log partition coefficient (logP) turned out to be 1.73.

On to `CCCCCSCS(=O)CC(CO)NC(=O)C=Cc1c(C)[nH]c(=O)[nH]c1=O` (stereo not drawn), for which the logP stood at 0.6.

Compound `NC(=O)Nc1ccc(Cl)cc1` displayed a logP of 1.8.

Consider `Nc1c([N+](=O)[O-])cccc1[N+](=O)[O-]`, for which the logP amounted to 1.79.

Compound `Cc1cc(C)c2c(c1)C(c1ccccc1)=NCC(=O)N2` displayed a logP of 2.94.

The compound `COC(=O)Nc1nc2ccccc2[nH]1` came in with a logP of 1.52.

With `O=C(O)C1c2ccccc2-c2ccccc21`, the logP amounted to 2.8.

For `O=C(c1ccccc1)c1ccc(NS(=O)(=O)C(F)(F)F)cc1`, the logP turned out to be 4.28.

On to `O=c1cnn(C2OC(CO)C(O)C2O)c(=O)[nH]1` (stereo not drawn), for which the logP is -2.14.

On to `CNCc1cccnc1`, for which the logP came out at 0.39.

`Cc1ccc2c(c1)nc(N)n2C` showed a logP of 1.47.

In turn, `CNc1c(NCCSCc2nc[nH]c2C)c(=O)c1=O` displayed a lipophilicity (logP) of -0.08.

Consider `CC[n+]1cccc2ccccc21.[Br-]`, for which the logP is -2.76.

For the compound `CC/C(=C\c1ccccc1)[N+](=O)[O-]`, the log partition coefficient (logP) turned out to be 2.86.

`O=[N+]([O-])c1ccccc1O`: the logP stood at 1.79.

For `CC1OC(OC2CCC3(CO)C4CCC5(C)C(C6=CC(=O)OC6)CCC5(O)C4CCC3(O)C2)C(O)C(O)C1O` (stereo not drawn), the lipophilicity (logP) is -0.62.

`COc1ccc2c(c1)N(C[C@H](C)CN(C)C)c1ccccc1S2` showed a logP of 4.68.

The compound `CCN(CC)CCNC(=O)c1ccccc1` had a logP of 1.99.

As to `CN(C)N=Nc1nc[nH]c1C(N)=O`, the logP was -0.24.

The compound `C=CCc1cccc2c(=O)c(C)c(-c3ccccc3)oc12` showed a logP of 4.67.

On to `CCc1ccc[nH]1`, for which the lipophilicity (logP) came out at 1.59.

On to `c1ccc(COc2ccccc2)cc1`, for which the logP is 3.79.

In turn, `COc1cccc(COC(=O)N(C)C)c1` returned a log partition coefficient (logP) of 2.09.

As to `CN(C)N=Nc1cccc(Cl)c1`, the logP was 3.44.

The compound `Nc1cccc2ncccc12` registered a logP of 1.16.

Compound `O=C1C=CC(=O)N1` yielded a lipophilicity (logP) of -0.29.

In turn, `CC(=O)N[C@@H](C)C(=O)N[C@@H](CC(C)C)C(N)=O` (Ac-Ala-Leu-NH2) showed a logP of -0.54.

For `CN(C)C(=O)Oc1ccccc1[N+](=O)[O-]`, the log partition coefficient (logP) is 1.35.
